Reference: PubChem BioAssay AID2060503 (Molecular Pharmacology Branch, DTP, NCI, 2025)

System: 817829-284-R-J1-PDC complex spheroids, viability
Assay: Anticancer human tumor 817829-284-R-J1-PDC patient-derived colon adenocarcinoma cell line growth inhibition [GQUAD]
Settings: for IC50: curve of first compound; for viability, T/C: stronger effect = lower value
Procedure, shortened: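 Viability of tumor cells grown as complex spheroids with endothelial and stromal cells, exposed to drug combinations. Top concentration at or near clinical Cmax (else 10 microM), diluted in half-log increments.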

[1] = second compound 0.0316 µM, first compound 0.0316 µM
[2] = second compound 0.0316 µM, first compound 0.1 µM
[3] = second compound 0.0316 µM, first compound 0.316 µM
[4] = second compound 0.0316 µM, first compound 1 µM
[5] = second compound 0.0316 µM, first compound 3.16 µM
[6] = second compound 0.0316 µM, first compound 10 µM
[7] = second compound 0.1 µM, first compound 0.0316 µM
[8] = second compound 0.1 µM, first compound 0.1 µM
[9] = second compound 0.1 µM, first compound 0.316 µM
[10] = second compound 0.1 µM, first compound 1 µM
[11] = second compound 0.1 µM, first compound 3.16 µM
[12] = second compound 0.1 µM, first compound 10 µM
[13] = second compound 0.316 µM, first compound 0.0316 µM
[14] = second compound 0.316 µM, first compound 0.1 µM
[15] = second compound 0.316 µM, first compound 0.316 µM
[16] = second compound 0.316 µM, first compound 1 µM
[17] = second compound 0.316 µM, first compound 3.16 µM
[18] = second compound 0.316 µM, first compound 10 µM
[19] = second compound 1 µM, first compound 0.0316 µM
[20] = second compound 1 µM, first compound 0.1 µM
[21] = second compound 1 µM, first compound 0.316 µM
[22] = second compound 1 µM, first compound 1 µM
[23] = second compound 1 µM, first compound 3.16 µM
[24] = second compound 1 µM, first compound 10 µM
[25] = second compound 3.16 µM, first compound 0.0316 µM
[26] = second compound 3.16 µM, first compound 0.1 µM
[27] = second compound 3.16 µM, first compound 0.316 µM
[28] = second compound 3.16 µM, first compound 1 µM
[29] = second compound 3.16 µM, first compound 3.16 µM
[30] = second compound 3.16 µM, first compound 10 µM
[31] = second compound 10 µM, first compound 0.0316 µM
[32] = second compound 10 µM, first compound 0.1 µM
[33] = second compound 10 µM, first compound 0.316 µM
[34] = second compound 10 µM, first compound 1 µM
[35] = second compound 10 µM, first compound 3.16 µM
[36] = second compound 10 µM, first compound 10 µM
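Note: spheroids exposed to agents for 7 days before readout.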
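Throughout, for viability, T/C: percent viability relative to DMSO vehicle control taken as 100%.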

## Nc1ccn(C2OC(CO)C(O)C2(F)F)c(=O)n1 (centres undefined) + Cc1[nH]c2ccc(F)cc2c1-c1nc2c3cccnc3c3ncccc3c2[nH]1
Second compound 0.0316 µM
  IC50: < 31.6 nM
Second compound 0.1 µM
  IC50: < 31.6 nM
Second compound 0.316 µM
  IC50: < 31.6 nM
Second compound 1 µM
  IC50: < 31.6 nM
Second compound 3.16 µM
  IC50: < 31.6 nM
Second compound 10 µM
  IC50: < 31.6 nM
[1]
  viability, T/C: 20.2%
[2]
  viability, T/C: 6.9%
[3]
  viability, T/C: 6.88%
[4]
  viability, T/C: 6.74%
[5]
  viability, T/C: 5.53%
[6]
  viability, T/C: 3.68%
[7]
  viability, T/C: 14.1%
[8]
  viability, T/C: 8.53%
[9]
  viability, T/C: 7.09%
[10]
  viability, T/C: 6.66%
[11]
  viability, T/C: 4.94%
[12]
  viability, T/C: 3.89%
[13]
  viability, T/C: 13.8%
[14]
  viability, T/C: 9.71%
[15]
  viability, T/C: 6.14%
[16]
  viability, T/C: 6.13%
[17]
  viability, T/C: 6.19%
[18]
  viability, T/C: 3.54%
[19]
  viability, T/C: 20.8%
[20]
  viability, T/C: 8.09%
[21]
  viability, T/C: 5.47%
[22]
  viability, T/C: 5.85%
[23]
  viability, T/C: 5.57%
[24]
  viability, T/C: 3.28%
[25]
  viability, T/C: 12.7%
[26]
  viability, T/C: 7.63%
[27]
  viability, T/C: 3.35%
[28]
  viability, T/C: 3.87%
[29]
  viability, T/C: 3.33%
[30]
  viability, T/C: 2.74%
[31]
  viability, T/C: 7.76%
[32]
  viability, T/C: 3.83%
[33]
  viability, T/C: 2.59%
[34]
  viability, T/C: 2.55%
[35]
  viability, T/C: 2.74%
[36]
  viability, T/C: 2.11%

## O=c1[nH]cc(F)c(=O)[nH]1 + Cc1[nH]c2ccc(F)cc2c1-c1nc2c3cccnc3c3ncccc3c2[nH]1
Second compound 0.0316 µM
  IC50: 1590 nM
Second compound 0.1 µM
  IC50: 1940 nM
Second compound 0.316 µM
  IC50: 1990 nM
Second compound 1 µM
  IC50: 1880 nM
Second compound 3.16 µM
  IC50: 684 nM
Second compound 10 µM
  IC50: 234 nM
[1]
  viability, T/C: 113%
[2]
  viability, T/C: 92.3%
[3]
  viability, T/C: 106%
[4]
  viability, T/C: 58.9%
[5]
  viability, T/C: 42.2%
[6]
  viability, T/C: 31.4%
[7]
  viability, T/C: 86.8%
[8]
  viability, T/C: 101%
[9]
  viability, T/C: 115%
[10]
  viability, T/C: 68.9%
[11]
  viability, T/C: 40.5%
[12]
  viability, T/C: 31.5%
[13]
  viability, T/C: 91.1%
[14]
  viability, T/C: 113%
[15]
  viability, T/C: 137%
[16]
  viability, T/C: 69.2%
[17]
  viability, T/C: 40.3%
[18]
  viability, T/C: 33.8%
[19]
  viability, T/C: 92.2%
[20]
  viability, T/C: 113%
[21]
  viability, T/C: 113%
[22]
  viability, T/C: 67.3%
[23]
  viability, T/C: 39.1%
[24]
  viability, T/C: 32.2%
[25]
  viability, T/C: 106%
[26]
  viability, T/C: 106%
[27]
  viability, T/C: 87.6%
[28]
  viability, T/C: 31.3%
[29]
  viability, T/C: 27.5%
[30]
  viability, T/C: 20.4%
[31]
  viability, T/C: 31.7%
[32]
  viability, T/C: 73.2%
[33]
  viability, T/C: 48.5%
[34]
  viability, T/C: 15.9%
[35]
  viability, T/C: 7.19%
[36]
  viability, T/C: 8.78%
